US20140193871A1, “METHOD FOR ENHANCING CARBON BIOFIXATION” (Industrial Technology Research Institute, priority 2013, published 2014)

What was measured:
[1] = system: Clostridium ljungdahlii BCRC 17797; assay: Growth (OD600) of Clostridium ljungdahlii under CO2/H2 gas mixture; format: cell-based; details: for OD600 value: t=144 hours, 2.5 g/L sodium lactate or 1.52 g/L NaCl in mPETC, 80% H2/20% CO2, 37° C.
Experimental: (§1) Clostridium ljungdahlii was first cultured anaerobically with mPETC medium containing 10 g/L of fructose at 37° C. in one of the air-tight bottles mentioned above. When OD600 reached a value ranging from 1 to 1.5, the culture medium was centrifuged at 3500 rpm for 210 seconds. The resulting cell pellet was resuspended with mPETC without fructose and then further cultured anaerobically at 37° C. for one hour to remove any residual sugar substrates.
(§2) 45 ml of mPETC culture medium was added to one of the crimp-top serum bottles mentioned above, which was then covered with an aluminum foil and autoclaved for 15 minutes at 121° C., 15 psi. After cooling, the medium-containing bottle was moved into an anaerobic chamber, and 50 μl of cysteine-HCl (50% w/v) was added to the medium to remove any dissolved oxygen.
(§3) For an experimental group, sodium lactate solution was further added to the culture medium to obtain a lactate concentration of 2.5 g/L (about 0.022 M).
(§4) For a sodium ion control group, NaCl solution was added to the culture medium to obtain a NaCl concentration of 1.52 g/L (about 0.026 M). This control group was designed to test whether the sodium ions present in the sodium lactate play any role in carbon dioxide fixation. Thus, the same molar amount of sodium ion as the experimental group was added.
(§5) Each of the serum bottles containing 45 ml of mPETC culture medium was then inoculated with 5 ml of Clostridium ljungdahlii culture that had residual sugar removed. A sample taken at this point was labeled as t=0 sample. The bottles were then sealed with rubber stoppers and further covered with aluminum crimp caps to ensure an air-tight closure.
The headspaces of the air-tight bottles were first purged with a gas mixture containing 80% N2 and 20% of CO2 under a pressure of 10 psi. Needles were inserted into the rubber stops to allow the gas to escape from the bottles. […]
Syringes with needles were used to collect liquid samples. […] The supernatant was analyzed with an Agilent 1100 series high-performance liquid chromatography (HPLC) with Aminex HPX-87 H (300 mm×7.8 mm) column.

[2] = system: Clostridium ljungdahlii BCRC 17797; assay: HPLC analysis of culture medium: acetic acid produced and lactic acid consumed during CO2 fermentation; format: cell-based; details: for carbon atoms contained in acetic acid produced / Acetic Acid ΔC (Ct=144 h − Ct=0), acetic acid produced: 144 hours of culture; for Acetic Acid ΔC (Ct=144 h − Ct=0), acetic acid produced / Acetic Acid Ct=0 h / Acetic Acid Ct=144 h: 2.5 g/L sodium lactate or 1.52 g/L sodium chloride in mPETC; for Acetic Acid Ct=0 h: t=0; for Acetic Acid Ct=144 h: t=144 hours; for Acetate production: after 96 hours of culture
Experimental: as §1, §2, §3, §4, §5
The headspaces of the air-tight bottles were first purged with a gas mixture containing 80% N2 and 20% of CO2 under a pressure of 10 psi. Needles were inserted into the rubber stops to allow the gas to escape from the bottles. After about 30 seconds of exposure to the gas mixture, an anaerobic condition filled with CO2 was obtained within the bottles.
Using needles, the headspaces of the bottles were then further purged with another gas mixture containing 80% H2 and 20% of CO2 under a pressure of 20 psi to replace the previous gas mixture. After about 30 seconds, needles were removed and the pressure within the bottles was built up to about 20 psi. The bottles were then moved to a 37° C. incubator and placed on a shaker providing a shaking speed of 100 rpm.
Every 12 hours, a needle was used to release the gas built up within the bottle, and the headspace of the bottle was purged and refreshed under the same process as described above to replenish gaseous carbon source under a stabilized pressure.
(§6) Syringes with needles were used to collect liquid samples. After measuring the OD600, the liquid samples were centrifuged at 12,000 rpm for 10 minutes. The resulting cell pellet was stored in 700 μl TRIzol solution for later RNA extraction and gene expression analysis. The supernatant was analyzed with an Agilent 1100 series high-performance liquid chromatography (HPLC) with Aminex HPX-87 H (300 mm×7.8 mm) column.
The experimental protocol as described in Example 1 was repeated, except that, besides having a no-additive control group, two experimental groups were prepared, one had 1 g/L of lactate in the culture medium and the other had 2.5 g/L of lactate in the culture medium.

[3] = system: lactate permease and genes involved in the Wood-Ljungdahl pathway; assay: RT-qPCR expression of lactate permease and Wood-Ljungdahl pathway genes; format: cell-based, Clostridium ljungdahlii; details: 2.5 g/L sodium lactate; relative to no-additive control group (FIG. 3)
Experimental: as §6
Real-time quantitative polymerase chain reaction (RT-qPCR) was used to quantify the expression of certain genes listed in Table 2.

Question: Which results are given for `[Cl-].[Na+]` [sodium chloride, reference compound]?
Answer: OD600 value [1]: 0.82; carbon atoms contained in acetic acid produced [2]: about 0.166 M; Acetic Acid ΔC (Ct=144 h − Ct=0), acetic acid produced [2]: 4.91 g/L; Acetic Acid ΔC (Ct=144 h − Ct=0), acetic acid produced ([2]; listed as sodium-ion control group): about 4.97 g/L; Acetic Acid Ct=0 h [2]: 0.06 ± 0.00 g/L; Acetic Acid Ct=144 h [2]: 4.97 ± 0.82 g/L

Question: With `CC(O)C(=O)O` (stereo not shown) [sodium lactate] as the compound, how does the “difference in growth rates between groups” value ([1]; experimental, sodium ion control and no-additive control groups, up to 144 hours) read?
Answer: no significant difference

Question: What about the OD600 value [1] of the same compound?
Answer: 0.71

Question: What about the Acetate production ([2]; 1 g/L lactate in medium) of the same compound?
Answer: 8.13 ± 1.59 g/L

Question: What about the Acetate production ([2]; 2.5 g/L lactate in medium) of the same compound?
Answer: 9.15 ± 0.06 g/L

Question: What about the “carbon atoms contained in acetic acid produced” value [2] of the same compound?
Answer: about 0.213 M

Question: What about the “Acetic Acid ΔC (Ct=144 h − Ct=0), acetic acid produced” value [2] of the same compound?
Answer: 6.39 g/L

Question: And the “amount of CO2 converted (fixed) to acetic acid, higher than control group” value ([2]; 144 hours, 0.191 M versus 0.166 M of control group)?
Answer: at least 15%

Question: And the “carbon atoms that came from CO2 in the gas mixture (CO2 fixed to acetic acid)” value ([2]; 144 hours, 2.5 g/L sodium lactate, 0.213 M minus 0.022 M)?
Answer: at least 0.191 M

Question: And the “Acetic Acid Ct=0 h” value [2]?
Answer: 0.06 ± 0.00 g/L

Question: What about the “Acetic Acid Ct=144 h” value [2] of the same compound?
Answer: 6.45 ± 0.43 g/L

Question: And the “fold increase of CooS1” value [3]?
Answer: ~3 fold

Question: What about the “fold increase of lactate permease” value [3] of the same compound?
Answer: ~11 fold

Question: What about the “fold increase of metF” value [3] of the same compound?
Answer: ~4 fold
